From the supplement of paper PMC10307832 come the findings set out here.

Common to all, as to test: relative viability (nuclei count vs DMSO), 5 days (fraction); higher = more cells survive
Compound in the test “CX-5461 + Decitabine”: Cc1cnc(CNC(=O)c2c(=O)c3ccc(N4CCCN(C)CC4)nc3n3c2sc2ccccc23)cn1 [CX-5461] + Nc1ncn([C@H]2C[C@H](O)[C@@H](CO)O2)c(=O)n1 [Decitabine] (partner 2 µM)
The method in brief:
(§1)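 Five library-drug doses in √10 steps were combined with a fixed anchor-drug dose, or a single drug was given alone, by pin tool to lung cancer cell lines in 1536-well plates the day after seeding. Nuclei were stained and counted after 5 days. Relative viability is the nuclei count in treated wells over that in vehicle wells, taken as the median of duplicate plates.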

Compound in the test “IMD-0354 + Lapatinib”: O=C(Nc1cc(C(F)(F)F)cc(C(F)(F)F)c1)c1cc(Cl)ccc1O [IMD-0354] + CS(=O)(=O)CCNCc1ccc(-c2ccc3ncnc(Nc4ccc(OCc5cccc(F)c5)c(Cl)c4)c3c2)o1 [Lapatinib] (partner 2 µM)
The method in brief:
as §1

Compound in the test “CX-5461 + Alpelisib”: Cc1cnc(CNC(=O)c2c(=O)c3ccc(N4CCCN(C)CC4)nc3n3c2sc2ccccc23)cn1 [CX-5461] + Cc1nc(NC(=O)N2CCC[C@H]2C(N)=O)sc1-c1ccnc(C(C)(C)C(F)(F)F)c1 [Alpelisib] (partner 2 µM)
The method in brief: as §1

Compound in the test “CX-5461 + Vorinostat”: Cc1cnc(CNC(=O)c2c(=O)c3ccc(N4CCCN(C)CC4)nc3n3c2sc2ccccc23)cn1 [CX-5461] + O=C(CCCCCCC(=O)Nc1ccccc1)NO [Vorinostat] (partner 1 µM)
A digest of the protocol: as §1

UMC-11: the relative viability in the test with CX-5461 + Decitabine (first compound 0.01 µM) was 0.611; with CX-5461 + Decitabine (first compound 0.03162 µM), 0.464; with CX-5461 + Decitabine (first compound 0.1 µM) it was 0.497; in the test with CX-5461 + Decitabine (first compound 0.3162 µM), 0.301; in the test with CX-5461 + Decitabine (first compound 1 µM) it was 0.36; with IMD-0354 + Lapatinib (first compound 0.04 µM), 1.07. For the same cell line, the relative viability with IMD-0354 + Lapatinib (first compound 0.1265 µM) came out at 0.939; with IMD-0354 + Lapatinib (first compound 0.4 µM), 0.622; with IMD-0354 + Lapatinib (first compound 1.265 µM), 0.239; in the test with IMD-0354 + Lapatinib (first compound 4 µM), 0.232; with CX-5461 + Alpelisib (first compound 0.01 µM) it was 0.932; with CX-5461 + Alpelisib (first compound 0.03162 µM), 1.21. Also, the relative viability with CX-5461 + Alpelisib (first compound 0.1 µM) was 1.07; in the test with CX-5461 + Alpelisib (first compound 0.3162 µM), 0.956; with CX-5461 + Alpelisib (first compound 1 µM) it was 0.391; with CX-5461 + Vorinostat (first compound 0.01 µM), 0.338; in the test with CX-5461 + Vorinostat (first compound 0.03162 µM), 0.35; in the test with CX-5461 + Vorinostat (first compound 0.1 µM), 0.384. In addition, the relative viability came out at 0.398 in the test with CX-5461 + Vorinostat (first compound 0.3162 µM) and 0.202 with CX-5461 + Vorinostat (first compound 1 µM).
